Laboratory results taken from PMC11056991, “Promising Anticancer Prodrugs Based on Pt(IV) Complexes with Bis-organosilane Ligands in Axial Positions” (Journal of Medicinal Chemistry, 2024).
Where two headings read alike, the source gives them in different places.

Tests used:
[1] = tested on: HCT 116 human colon cancer cells; assay: MTT cell viability assay, HCT 116; type: cell-based; conditions: for IC50: 48 h
Protocol: (§1) HIEC6 human healthy intestinal cells and HCT 116 and HT-29 human colon cancer cells were supplied by ATCC. Colon cancer cells were cultured in Dulbecco’s modified Eagle’s medium (DMEM) for HCT 116 and HT-29 supplemented with fetal bovine serum (10%). HIEC6 cells were cultured in Opti-MEM supplemented with fetal bovine serum (4%), HEPES (20 mM), glutamine (10 mM), and epidermal growth factor (10 ng/mL). Cells were maintained at 37 °C in a humidified atmosphere containing 5% CO2. Cells were seeded at 30% confluence in DMEM for HCT 116 and in Opti-MEM for HIEC6; after cell adhesion, HIEC6 cells were cultured in DMEM for 24h before being treated. All cells were treated with the indicated components at concentrations of 0.25–50 μM and incubated for 1–5 days as specified.
(§2) The MTT assay relies on a colorimetric reaction based on the capacity of living cells to reduce MTT to formazan and change the color to purple, which is easily measured by colorimetry. This assay estimates the cellular viability after the indicated treatments. Cells were treated with MTT (1:10 in culture medium) and incubated at 37 °C for 3 h for HCT 116 and HT-29 or 6 h for HIEC6. After removal of the medium, the formazan was resuspended in DMSO, transferred to p96 plates, and analyzed by a SpectraFLUOR (Tecan) at 542 nm. In all cases, viability was measured in duplicates of each point in three independent experiments.

[2] = tested on: HIEC6 human healthy intestinal cells; assay: MTT cell viability assay, HIEC6; type: cell-based; conditions: for IC50: 48 h
Protocol: as §1, §2

[3] = tested on: HT-29 human colon cancer cells; conditions: MTT, Figure S14E
Protocol: Cells were maintained at 37 °C in a humidified atmosphere containing 5% CO2.

HCT 116 cells = assay: Trypan blue exclusion test; type: cell-based, human; conditions: HCT 116, 0.5 μM, 2 days
Protocol: HCT 116 cells were harvested by trypsinization followed by centrifugation at 500g for 5 min. The cell pellet was resuspended in 1 mL of PBS. Equal volumes of trypan blue (Bio-Rad cat. no. 1450021) 0.4% and cell suspension were mixed and incubated for 1–3 min at room temperature, and cell counting was carried out using a TC20 Automated Cell Counter (Bio-Rad cat. no. 1450102). The percentage of viable cells was calculated by dividing the number of viable cells per milliliter by the number total of cells per milliliter) × 100. Representative images were acquired using a Zeis light microscope with a 20× objective.

[4] = 195Pt NMR reduction kinetics with glutathione; type: physicochemical; conditions: GSH 4:1 excess, DMSO/D2O (4:1), 37 °C, 2, 6, 24 h
Protocol: AsA presents an intracellular concentration of 1 mM, whereas the GSH concentration is 2 mM.[38] This reactivity was monitored by ^195Pt NMR at different times. Thus, by analyzing the different regions where the signals of Pt(II)/Pt(IV) species appear, it is possible to identify and assign the different compounds formed during the reaction. In most cases, the regions where the Pt(II) and Pt(IV) signals appear are separated by more than 3000 ppm.[33]
The reactivity of both complexes toward the reducing agent GSH was also studied using the DMSO/D2O (4:1) mixture. […] In the Pt(II) region, two signals appeared after 24 h at −2728 and −3405 ppm (Figure 2G). The first value is consistent with the cis-PtN2SX fraction,[41],[42] meaning that this species, once reduced to its Pt(II) homologue, coordinates with GSH by displacing a chloride ligand. The second signal corresponds to another Pt(II) moiety with more than one ligand containing sulfur atoms. […]
Each solution was then slowly added to 100 μL of a solution of the corresponding reducing agent (AsA or GSH in an excess of 4:1 against each complex) in D2O at 37 °C. […] Each sample was monitored by ^195Pt NMR at 2, 6, and 24 h.

[5] = tested on: histone gH2Ax foci at double-strand DNA breaks in HCT 116 cells; assay: Immunofluorescence of histone gH2Ax DNA damage foci; type: cell-based, human; conditions: HCT 116, 0.5 μM, 48 h
Protocol: Confocal imaging of the DNA damage response was followed by immunofluorescence of histone gH2Ax foci at double-strand DNA breaks (DSB) (Figure 4A). […] However, none of the Pt(IV) prodrugs were able to increase p53 levels even at concentrations higher than those needed to reduce cell viability.
Cells in coverslips were washed three times and fixed with 4% paraformaldehyde in PBS (pH 7.4) for 10 min, washed again, permeabilized (PBS [pH7.4], 0.5% Triton X-100, 0.2% BSA) for 5 min, blocked (PBS [pH7,4], 0,05% Triton X-100, 5% BSA) for 1 h at room temperature, and incubated with primary antibody overnight at 4 °C. After three washes (5 min), cells were incubated with secondary antibody for 1 h at room temperature, and the nuclei were stained with 4,6-diamidino-2-phenylindole (DAPI, 1:10,000, Invitrogen) for 10 min. Slides were mounted, and images were acquired using an FV3000 confocal microscope (Olympus) with a 63× objective. The antibodies rabbit monoclonal anti-Histone H2A.X (D17A3) (dilution 1:400) and mouse monoclonal anti-Lamin A/C (4C11) (dilution 1:400) were purchased from Cell Signaling (Danvers, Massachusetts, USA). Donkey Anti-Rabbit-Alexa Fluor 488 (dilution 1:500) and Donkey Anti-Mouse-Alexa Fluor 594 (dilution 1:500) were purchased from Invitrogen (Barcelona, Spain).

[6] = In vivo toxicity and tolerance in tumor-bearing mice; design: species or system athymic nude Foxn1nu mice
Source text: The in vitro results encouraged us to explore the translational potential in a preclinical in vivo model of nude mice with grafted tumor cells. […] Tumor growth was monitored until tumors in the control group reached the ethically allowed size. […] On the other hand, many types of cancer cause a general increase in lactate dehydrogenase (LDH), and it is considered a nonspecific tumor marker.[57] Both treatments reduced LDH levels compared to those of untreated animals (PBS), reflecting the response to treatment.
To establish the subcutaneous tumor, 2 × 10^6 HCT 116 colon carcinoma cells were resuspended 1:1 in culture media and Matrigel (BD) and injected subcutaneously. Six to eight week old female athymic nude Foxn1nu mice (Harlan Iberica) were used for each point. […] Two therapeutic approaches were compared: acute and chronic (see diagram in Figure 5). Acute treatment was performed (three injections of 10 mg/kg); chronic treatment relied on injections of 1 mg/kg every 3–4 days. […] Tumor growth was monitored by personnel unaware of the group distribution. Experiments were finalized when control animals achieved the maximum tumor size approved by the Ethical Committee. Animals were sacrificed by euthanasia by CO2 inhalation. Selected organs were collected from each animal for histopathological analysis. Samples were fixed in 4% paraformaldehyde for 2 h followed by cold 70% ethanol. Plasma serum was collected to determine hepatic and renal toxicity of treatments using a SPIN200E automatic bioanalyzer (Spinreact).

[7] = MTT, 5 uM, 2 days, (final complexes, Figure 3B)
[8] = MTT, second (last) column of this head
[9] = mice after treatment, versus cisplatin

## CC(C)N.CC(C)N.CCO[Si](CCCNC(=O)[O][Pt]([Cl])([Cl])[O]C(=O)NCCC[Si](OCC)(OCC)OCC)(OCC)OCC [Pt(IV)-biSi-2, cis-Dichloro(diisopropylamine)-trans-[3-(triethoxysilyl)propylcarbamate]platinum(IV)]
[1]; 5 μM, 5 days chronic treatment
  Fold greater cytotoxicity than cisplatin, HCT 116: 8–10 fold
[1]; MTT, 0.5 uM, 2 days
  Cell viability, HCT 116 0.5uM 2 days: 49.4 ± 3.2%
[1]; MTT, 0.5 μM, 2 days
  Reduction of viability (cytotoxicity) of HCT 116 tumor cells: 50%
[1]; MTT, 0.5 uM, 5 days
  Cell viability, HCT 116 0.5uM 5 days: 60.2 ± 14.4%
[1]; MTT, 0.5 μM, 5 days
  Reduction of tumor cell viability (HCT 116): 40%
[1]; MTT, 5 μM, 2 days
  Reduction in viability of cancer cells (HCT 116): 90%
[1]; [7]
  Cell viability, HCT 116 5uM 2 days: 4.4 ± 0.8%
[1]; MTT, 5 μM, 5 days chronic treatment
  Cells survived, HCT 116: 5%
[1]; MTT, Figure 3C and text, read-out: IC50 (μM), HCT 116
  IC50: 0.94 µM
[1]; MTT, supplementary CSV, read-out: IC50 (uM) HCT 116
  IC50: 0.9 ± 0.6 µM
[1]; MTT, 2 days
  Cell viability, HCT 116 […] 2 days: 59.6 ± 2.9%
[1]; [8]
  Cell viability, HCT 116 […] 2 days: 59.1 ± 0.8%
[2]; IC50 HIEC6 versus IC50 HCT 116
  Fold higher concentration needed to reduce nontumorigenic intestinal cell viability by 50%: 3.7 fold
[2]; MTT, 0.5 uM, 2 days
  Cell viability, HIEC6 0.5uM 2 days: 92.5 ± 0.9%
[2]; MTT, 0.5 uM, 5 days
  Cell viability, HIEC6 0.5uM 5 days: 84.1 ± 4.7%
[2]; MTT, 5 μM, 2 days
  Reduction in viability of healthy cells (HIEC6): 60%
[2]; [7]
  Cell viability, HIEC6 5uM 2 days: 41.2 ± 1.5%
[2]; MTT, Figure 3C and text, read-out: IC50 (μM), HIEC6
  IC50: 3.47 µM
[2]; MTT, supplementary CSV, read-out: IC50 (uM) HIEC6
  IC50: 3.5 ± 0.6 µM
[2]; MTT, 2 days
  Cell viability, HIEC6 […] 2 days: 97.8 ± 4.0%
[2]; [8]
  Cell viability, HIEC6 […] 2 days: 98.8 ± 6.1%
[3]
  Cytotoxic effect on colon cancer cells (HT-29): strong cytotoxic effect
HCT 116 cells
  Reduction of viability by trypan blue staining: approximately 60%
[4]
  Reduction of the Pt(IV) complex by GSH (Pt(IV) signal in 195Pt NMR): practically disappeared after 24 h
[5]
  Unresolved DSB / histone H2Ax foci: foci were retained at 48 h
[6]; acute and chronic treatment
  Side effects (weight loss greater than 5% or abnormal postures) or deaths: No side effects (weight loss greater than 5% or abnormal postures) or deaths of the mice were observed
[6]; [9]
  Hepatic toxicity (uric acid and GPT levels in plasma): significantly lower
  Renal toxicity (creatinine levels in plasma): significantly lower
